Data from the Deep4Chem optical property database.
Blank lines part the entries; values can stand above or below the molecule they belong to.

Experiment: photoluminescence quantum yield (fraction); solvent given as SMILES

Compound: COc1ccc2cc(C3=[N+]4C(=Nc5c(-c6ccccc6)cc(-c6ccc7cc(OC)ccc7c6)n5[B-]4(F)F)C(c4ccccc4)=C3Br)ccc2c1
photoluminescence quantum yield (in ClC(Cl)Cl): 0.12 | photoluminescence quantum yield (in ClCCl): 0.12

Compound: CCC1(CC)c2cc(/C=C/c3cc(C#N)c(/C=C/c4ccc5c(c4)C(CC)(CC)c4cc(N6c7ccccc7Sc7ccccc76)ccc4-5)cc3C#N)ccc2-c2ccc(N3c4ccccc4Sc4ccccc43)cc21
photoluminescence quantum yield (in C1CCOC1): 0.01 | photoluminescence quantum yield (in CCCCCC): 0.11 | photoluminescence quantum yield (in Cc1ccccc1): 0.06 | photoluminescence quantum yield (in ClCCl): 0.01

Compound: c1ccc(-c2ccc(-c3nc(-n4c5ccccc5c5ccc6c7ccccc7n(-c7ccccc7)c6c54)nc(-n4c5ccccc5c5ccc6c7ccccc7n(-c7ccccc7)c6c54)n3)cc2)cc1
photoluminescence quantum yield (in Cc1ccccc1): 0.1

Compound: CCC1(CC)c2ccccc2-c2ccc(C#Cc3cc(C#Cc4ccc5c(c4)C(CC)(CC)c4ccccc4-5)c4ccc5c(C#Cc6ccc7c(c6)C(CC)(CC)c6ccccc6-7)cc(C#Cc6ccc7c(c6)C(CC)(CC)c6ccccc6-7)c6ccc3c4c65)cc21
photoluminescence quantum yield (in Cc1ccccc1): 0.64

Compound: COc1ccccc1-c1c(-c2ccccc2O)nc(-c2ccc(C(F)(F)F)cc2)n1-c1ccc(C)cc1
photoluminescence quantum yield (in C1CCOC1): 0.01 | photoluminescence quantum yield (in CC(C)O): 0.01 | photoluminescence quantum yield (in CO): 0.01 | photoluminescence quantum yield (in CS(C)=O): 0.01 | photoluminescence quantum yield (in ClC(Cl)Cl): 0.01 | photoluminescence quantum yield (in ClCCl): 0.01

Compound: CC1(C)Oc2c(c3nc4ccccc4nc3c3ccccc23)CC1Br (stereo not drawn)
photoluminescence quantum yield (in C1CCCCC1): 0.28 | photoluminescence quantum yield (in C1CCOC1): 0.39 | photoluminescence quantum yield (in C1COCCO1): 0.44 | photoluminescence quantum yield (in CC#N): 0.49 | photoluminescence quantum yield (in CC(C)O): 0.39 | photoluminescence quantum yield (in CCCCCC): 0.25 | photoluminescence quantum yield (in CN(C)C=O): 0.34 | photoluminescence quantum yield (in CO): 0.57 | photoluminescence quantum yield (in c1ccccc1): 0.28

Compound: O=C1c2cccc3c(NCc4ccccn4)c4ccccc4c(c23)C(=O)N1Cc1ccccn1
photoluminescence quantum yield (in C1CCOC1): 0.07 | photoluminescence quantum yield (in CCCCCC): 0.04 | photoluminescence quantum yield (in CCO): 0.07 | photoluminescence quantum yield (in Cc1ccccc1): 0.08 | photoluminescence quantum yield (in ClCCl): 0.1

Compound: N#Cc1ccc(-n2c(-c3ccc(-c4ccc(-c5nc6c7ccccc7c7ccccc7c6n5-c5ccc(C#N)c6ccccc56)cc4)cc3)nc3c4ccccc4c4ccccc4c32)c2ccccc12
photoluminescence quantum yield (in ClCCl): 0.85

Compound: CCCN1C(=O)C(=CC=CC=C2Oc3ccccc3N2CCCS(=O)(=O)[O-])C(=O)N(CCC)C1=S
photoluminescence quantum yield (in CC(C)=O): 0.41 | photoluminescence quantum yield (in CCCCO): 0.37 | photoluminescence quantum yield (in CCO): 0.25 | photoluminescence quantum yield (in CO): 0.17 | photoluminescence quantum yield (in ClC(Cl)Cl): 0.32 | photoluminescence quantum yield (in O): 0.04

Compound: Fc1ccc(C2=C(c3ccc(F)cc3)c3cccc4c3c(cc3nc5ccccc5nc34)O2)cc1
photoluminescence quantum yield (in ClCCl): 0.35

Compound: Cc1ccccc1C
photoluminescence quantum yield (in C1CCCCC1): 0.26

Compound: CC(C)[Si](C#Cc1c2ccc(C(C)(C)C)cc2c(C#Cc2c3ccc(C(C)(C)C)cc3c(C#C[Si](C(C)C)(C(C)C)C(C)C)c3ccc(C(C)(C)C)cc23)c2ccc(C(C)(C)C)cc12)(C(C)C)C(C)C
photoluminescence quantum yield (in Cc1ccccc1): 0.02

Compound: c1ccc(-c2cc3c(oc4ccccc43)c(-c3ccccc3)[o+]2)cc1
photoluminescence quantum yield (in CC#N): 0.18 | photoluminescence quantum yield (in ClCCCl): 0.1

Compound: CCN1C(=O)C(C2C(=O)c3c4ccccc4cc4cc5ccccc5c2c34)C(=O)N(CC)C1=S (stereo not drawn)
photoluminescence quantum yield (in C1CCOC1): 0.205 | photoluminescence quantum yield (in CCCCCC): 0.316 | photoluminescence quantum yield (in Cc1ccccc1): 0.052 | photoluminescence quantum yield (in ClCCl): 0.237

Compound: c1cc2c3c4c5c(cccc5cc3c1)-c1cccn1B4n1cccc1-2
photoluminescence quantum yield (in C1CCOC1): 0.07

Compound: Cc1ccc(-n2c(C)ccc2C)cc1
photoluminescence quantum yield (in CC#N): 0.013 | photoluminescence quantum yield (in CCCCCC): 0.006

Compound: CC(C)(C)[Si](C)(C)C#CC1=CC2=c3cc(C#C[Si](C)(C)C(C)(C)C)c4nc(C(F)(F)C(F)(F)C(F)(F)F)nc5c(C#C[Si](C)(C)C(C)(C)C)cc(c3c54)C3=CC(C#C[Si](C)(C)C(C)(C)C)=C4N=C(C(F)(F)C(F)(F)C(F)(F)F)N=C1C4C32 (stereo not drawn)
photoluminescence quantum yield (in C1CCOC1): 0.35

Compound: [O-]c1ccccc1-c1[nH+]c2c3cccnc3c3ncccc3c2n1-c1ccccc1
photoluminescence quantum yield (in Cc1ccccc1): 0.125

Compound: CC1(C)c2ccccc2N(c2ccc(C(=C(C#N)C#N)c3ccc(N4c5ccccc5C(C)(C)c5ccccc54)cc3)cc2)c2ccccc21
photoluminescence quantum yield (in Cc1ccccc1): 0.0171

Compound: CN1/C(=C/C=C(/C=C/c2sc3ccccc3[n+]2C)c2ccc(F)cc2)Sc2ccccc21
photoluminescence quantum yield (in CCO): 0.1 | photoluminescence quantum yield (in CO): 0.09 | photoluminescence quantum yield (in CS(C)=O): 0.14

Compound: CCn1c2ccsc2c2c3nsnc3c3c4sccc4n(CC)c3c21
photoluminescence quantum yield (in C1CCOC1): 0.68 | photoluminescence quantum yield (in CCOC(C)=O): 0.63 | photoluminescence quantum yield (in CN(C)C=O): 0.42 | photoluminescence quantum yield (in Cc1ccccc1): 0.73 | photoluminescence quantum yield (in ClCCl): 0.33

Compound: C(=C\c1nc2ccccc2o1)/c1ccccc1
photoluminescence quantum yield (in C1CCCCC1): 0.05 | photoluminescence quantum yield (in CO): 0.006

Compound: c1ccc(-c2nc3c(ccc4[nH]ccc43)o2)cc1
photoluminescence quantum yield (in C1CCCCC1): 0.6 | photoluminescence quantum yield (in C1COCCO1): 0.78 | photoluminescence quantum yield (in CC#N): 0.72 | photoluminescence quantum yield (in CO): 0.55 | photoluminescence quantum yield (in Cc1ccccc1): 0.69 | photoluminescence quantum yield (in O): 0.54

Compound: Cc1ccccc1-c1c2ccc(=[N+]3CCCC3)cc-2oc2cc(N3CCCC3)ccc12
photoluminescence quantum yield (in CCO): 0.95 | photoluminescence quantum yield (in ClCCl): 1

Compound: CC(C)(C)c1ccc(C2=C(c3ccc(N(c4ccccc4)c4ccccc4)cc3)S(=O)(=O)c3c2sc(-c2ccc(N(c4ccccc4)c4ccccc4)cc2)c3-c2ccc(C(C)(C)C)cc2)cc1
photoluminescence quantum yield (in C1CCOC1): 0.442

Compound: Oc1ccc(C2=[N+]3C(=C(c4ccccc4)c4cccn4[B-]3(F)F)C=C2)cc1
photoluminescence quantum yield (in ClC(Cl)Cl): 0.06

Compound: CCn1c2ccccc2c2cc(C#Cc3cc(C#Cc4ccc5c(c4)c4ccccc4n5CC)nc(SC)n3)ccc21
photoluminescence quantum yield (in C1CCOC1): 0.61 | photoluminescence quantum yield (in CCOC(C)=O): 0.62 | photoluminescence quantum yield (in CN(C)C=O): 0.56 | photoluminescence quantum yield (in Cc1ccccc1): 0.53 | photoluminescence quantum yield (in ClCCl): 0.64

Compound: c1ccc(-c2nc(-c3ccc(-c4ccc(-c5ccc(-c6nc(-c7ccccc7)c(-c7ccccc7)o6)cc5)cc4)cc3)oc2-c2ccccc2)cc1
photoluminescence quantum yield (in C1COCCO1): 0.73

Compound: [O-]c1ccccc1-c1[nH+]c2c3ccccc3c3ccccc3c2o1
photoluminescence quantum yield (in Cc1ccccc1): 0.111

Compound: Cc1ccc2c(c1)c1cc(C)ccc1n2-c1c(C#N)c(-n2c3ccc(C)cc3c3cc(C)ccc32)c(-n2c3ccc(C)cc3c3cc(C)ccc32)c(C#N)c1-n1c2ccc(C)cc2c2cc(C)ccc21
photoluminescence quantum yield (in Cc1ccccc1): 0.474

Compound: F[B-]1(F)n2c(cc3c4ccccc4c4ccccc4c32)-c2ccc3ccccc3[n+]21
photoluminescence quantum yield (in ClCCl): 0.9

More lines, now with the values ahead:

photoluminescence quantum yield (in C1CCCCC1): 0.002 | photoluminescence quantum yield (in C1CCOC1): 0.009 | photoluminescence quantum yield (in CC#N): 0.004 | photoluminescence quantum yield (in CO): 0.002 | photoluminescence quantum yield (in CS(C)=O): 0.007 | photoluminescence quantum yield (in ClCCl): 0.004 | photoluminescence quantum yield (in O): 0.001
Compound: CC1=N/C(=C\c2ccccc2N)C(=O)N1C

photoluminescence quantum yield (in CCO): 0.022
Compound: CCOC(=O)c1cc(C(=O)OCC)c2cc(C)ccc2n1

photoluminescence quantum yield (in ClCCl): 0.24
Compound: CN(C)c1ccc(/C=C/c2cnc(C#Cc3ccc(C#N)cc3)o2)cc1

photoluminescence quantum yield (in ClCCl): 0.86
Compound: O=C1c2cc3ccccc3cc2C2=Nc3cccc[n+]3[B-](F)(F)N12

photoluminescence quantum yield (in C1COCCO1): 0.295
Compound: COC(=O)c1ccc(/C=C2\N=C(c3ccc(OC)c(OC)c3)NC2=O)cc1

photoluminescence quantum yield (in CN(C)C=O): 0.6 | photoluminescence quantum yield (in ClC(Cl)Cl): 0.99
Compound: CC(C)(C)c1cc(C(C)(C)C)c2oc3c(c2c1)C=CN1C(=O)C2=C4c5oc6c(C(C)(C)C)cc(C(C)(C)C)cc6c5C=CN4C(=O)C2=C31

photoluminescence quantum yield (in CO): 0.77
Compound: O=C(O)CCCOc1cc2ccc3cccc4ccc(c1)c2c34

photoluminescence quantum yield (in CC#N): 0.51 | photoluminescence quantum yield (in CO): 0.02 | photoluminescence quantum yield (in ClCCl): 0.75
Compound: COc1cccc(-c2[nH]c(=O)n3c2-c2ccccc2C3=O)c1O

photoluminescence quantum yield (in CC#N): 0.16
Compound: Cc1cc2nc3c(=O)[nH]c(=O)nc-3n(C)c2cc1C

photoluminescence quantum yield (in CC#N): 0.0011 | photoluminescence quantum yield (in CO): 0.001 | photoluminescence quantum yield (in O): 0.0014
Compound: CN(C)CCCN1c2ccccc2Sc2ccc(C(F)(F)F)cc21

photoluminescence quantum yield (in C1CCOC1): 0.13 | photoluminescence quantum yield (in CC#N): 0.04 | photoluminescence quantum yield (in CCCCCC): 0.45
Compound: COCCN1C(=O)/C(=C/c2cccc(N(C)C)c2)N=C1C

photoluminescence quantum yield (in CN(C)C=O): 0.11
Compound: O=C([O-])c1ccc2cc3cc(C(=O)[O-])ccc3cc2c1

photoluminescence quantum yield (in C1CCOC1): 0.14 | photoluminescence quantum yield (in CC#N): 0.05 | photoluminescence quantum yield (in CCCCCC): 0.46
Compound: CC1=N/C(=C\c2cccc(N(C)C)c2)C(=O)N1C

photoluminescence quantum yield (in C1COCCO1): 0.048 | photoluminescence quantum yield (in CC#N): 0.033 | photoluminescence quantum yield (in CCO): 0.028 | photoluminescence quantum yield (in CCOC(C)=O): 0.041 | photoluminescence quantum yield (in O): 0.013
Compound: CN1C(=O)/C(=C/c2ccncc2)N=C1/C=C/c1ccncc1

photoluminescence quantum yield (in CCO): 0.48 | photoluminescence quantum yield (in O): 0.16
Compound: CC/[NH+]=c1\cc2oc3cc(NCCC(=O)NC(CCC(=O)OC)C(=O)OC)c4ccccc4c3nc-2cc1C (stereo not drawn)

photoluminescence quantum yield (in CC#N): 0.83
Compound: COc1ccc(C#Cc2ccccc2C#Cc2ccc(OC)cc2)cc1

photoluminescence quantum yield (in CCO): 0.94 | photoluminescence quantum yield (in O): 0.95
Compound: CC/[NH+]=c1\cc2oc3cc(NC)c(C)cc3c(-c3ccccc3C(=O)OCC)c-2cc1C

photoluminescence quantum yield (in C1CCCCC1): 0.23 | photoluminescence quantum yield (in CC#N): 0.26 | photoluminescence quantum yield (in CO): 0.25 | photoluminescence quantum yield (in ClCCl): 0.31
Compound: COc1c2ccccc2c(OC)c2c1c1c(C)ccc(OC)c1n2C

photoluminescence quantum yield (in C1CCOC1): 0.006 | photoluminescence quantum yield (in CC#N): 0.0022 | photoluminescence quantum yield (in CS(C)=O): 0.0013 | photoluminescence quantum yield (in ClC(Cl)Cl): 0.013
Compound: O=c1oc2ccccc2cc1-c1ccc([N+](=O)[O-])cc1

photoluminescence quantum yield (in O): 0.093
Compound: CC(=O)c1ccn2c3c(c(-c4cc[n+](C)cc4)c2c1)CN(C)C3=O

photoluminescence quantum yield (in CC(C)O): 0.1
Compound: CC[n+]1c(C=C2C(=O)C(C=C3N(C)c4ccccc4C3(C)C)=C2[O-])sc2ccccc21

photoluminescence quantum yield (in CC(C)(C)O): 0.12 | photoluminescence quantum yield (in CC(C)CO): 0.1 | photoluminescence quantum yield (in CC(C)O): 0.11 | photoluminescence quantum yield (in CCCCO): 0.09 | photoluminescence quantum yield (in CCCO): 0.14 | photoluminescence quantum yield (in CCO): 0.18 | photoluminescence quantum yield (in CN(C)C=O): 0.04 | photoluminescence quantum yield (in CNC=O): 0.05 | photoluminescence quantum yield (in CO): 0.22 | photoluminescence quantum yield (in NC=O): 0.31 | photoluminescence quantum yield (in O): 0.55
Compound: COCCOCCOCCOCCOc1cc(C=O)c(OCCOCCOCCOCCOC)cc1C=O
